Measurements as given in US11253532B2, “Composition for promoting increase in androgen” (Kobayashi Pharmaceutical Co., Ltd., priority 2016, dated 2022).

Tested on: cells of testes collected from mice (primary culture)
Assay: Test Example 1: testosterone secretion from primary culture of mouse testes cells, measured by EIA
Assay type: cell-based, mice (ddY strain)
Settings: 2-hour culture
Description: 2 mL of 50% ethanol was added to 4 mg/vial of compound K (trade name: Ginsenoside CK, 0150S, Extrasynthese S.A.) to dissolve compound K, and the obtained solution was suitably diluted with a DME/F-12 medium (Nacalai Tesque) containing 0.1% bovine serum albumin (BSA) (“0.1% BSA-DME/F-12”) to prepare a sample.
Testes were collected from mice (ddY strain, male, 7 to 8 weeks old), and subjected to primary culture. Specifically, testes were subjected to collagenase treatment (Worthington, Type 2, 0.05%, 37° C., 15 minutes) to disperse cells, and adjusted to 3×10^5 cells/0.5 mL in a DME/F-12 medium containing 10% fetal bovine serum (FBS). The cells were then seeded into a 24-well plate, and cultured overnight. After culture, the cells were washed with PBS(−) (Dulbecco's PBS (0.2 g/L of potassium chloride, 0.2 g/L of monopotassium phosphate, 8 g/L of sodium chloride, 1.15 g/L of anhydrous disodium phosphate, pH of 7.4, an isotonic solution, ion content: (mEq)Na^+ 148, K^+ 4, Cl^− 139)). The prepared sample was then added to the cells to give a volume of 1/10, together with a 0.1% BSA-DME/F-12 medium, and the concentration of compound K in the wells was adjusted to 1 μg/mL, 10 μg/mL, and 100 μg/mL.
A mixture solution of 50% ethanol and 0.1% BSA-DME/F-12 was prepared in place of the sample in the same manner as above, except that compound K was not added; this mixture was added to the cells to give a volume of 1/10 as above, thereby preparing a control (the concentration of compound K: 0 μg/mL).
After 2-hour culture, the medium was collected, and the testosterone levels in the mediums were measured by enzyme immunoassay (EIA).
Specifically, a goat anti-rabbit IgG antibody (2 μg/well) was added to a 96-well microplate (Nunc, Denmark), and the plate was coated at room temperature for 1 hour. After washing, a blocking agent (0.14M NaCl, 0.02% thimerosal, 1% BSA, 0.01M phosphate buffer, pH of 7.4) was added thereto to perform blocking at room temperature for 15 minutes. […] The absorbance at 490 nm was measured with a microplate reader to determine the testosterone secretion level.

CC(C)=CCC[C@](C)(O[C@@H]1O[C@H](CO)[C@@H](O)[C@H](O)[C@H]1O)[C@H]1CC[C@]2(C)[C@@H]1[C@H](O)C[C@@H]1[C@@]3(C)CC[C@H](O)C(C)(C)[C@@H]3CC[C@]12C [compound K, 20(S)-protopanaxadiol 20-O-β-d-glucopyranoside (M1)]
testosterone level in a medium (compound K 1 μg/mL, not shown in FIG. 1): increased testosterone level
testosterone level in a medium (compound K 10 μg/mL, versus medium free from compound K (0 μg/mL), FIG. 1): higher
testosterone level in a medium (compound K 100 μg/mL, versus medium free from compound K (0 μg/mL), FIG. 1): higher
